Experimental data taken from US5654290A, “Polyunsaturated fatty acid based drugs” (Institut National de la Sante et de la Recherche Medicale, priority 1992, dated 1997).

Columns and labels:
[1] = tested on: platelets; conditions: cited from earlier work
[2] = tested on: TXA2 /PGH2 receptor; conditions: cited from earlier work
[3] = tested on: platelets; conditions: concentrations which do not bring the TXA2/PGH2 receptor into play; cited from earlier work
[4] = tested on: platelets; conditions: concentrations which do not bring the TXA2/PGH2 receptor into play; cited from earlier work; remark: listed apart in the source
[5] = tested on: alpha2 -adrenergic receptor; conditions: platelet membranes; cited from earlier work
[6] = tested on: TXA2 /PGH2 receptor; conditions: whole platelets or solubilized platelet membranes; cited from earlier work
[7] = tested on: brain; test: Distribution of the radioactivity between the lipid classes of the brain after intravenous injection of lyso-PCDHA or non-esterified DHA; format: in vivo, rat; conditions: for radioactivity in OTHERS of the brain / radioactivity in AG of the brain / radioactivity in DG of the brain / radioactivity in LN of the brain / radioactivity in Lyso-PC of the brain / radioactivity in MG of the brain / radioactivity in PC of the brain / radioactivity in PE of the brain / radioactivity in PS of the brain / radioactivity in Pi of the brain / radioactivity in TG of the brain: injection of Lyso-PCDHA
Source text: (§1) The animal studied is a 20-day-old rat in which the cerebral lipid metabolism is at its peak.
(§2) The lyso-PC's are labelled on the fatty acid and the choline, attached to albumin and administered intravenously (50). […] It therefore appears that the lyso-PCDHA's attached to albumin constitute a particularly preferred form of supply of DHA to the developing brain.

[8] = tested on: brain; test: Capture by the brain, in rats, of lyso-PC's; format: in vivo; conditions: 20-day-old rat, intravenous, attached to albumin; compared with lyso-PC's comprising 18:1, 18:2 and 20:4
Source text: (§3) FIG. 3 represents the variation of the radio-activity recovered in the total lipids: A from the brain, B from the kidney, C from the heart and D from the liver, after injecting tritiated DHA in free form (black circle) or in the form of 2-DHA-1-lyso-PC (black triangle).
as §1, §2

[9] = tested on: kidney; test: Capture by the kidney, in rats, of lyso-PCDHA and non-esterified DHA; format: in vivo; conditions: 20-day-old rat, intravenous; lyso-PCDHA vs non-esterified DHA
Source text: as §3, §1, §2

[10] = tested on: liver; test: Capture by the liver, in rats, of lyso-PCDHA and non-esterified DHA; format: in vivo; conditions: 20-day-old rat, intravenous; lyso-PCDHA vs non-esterified DHA
Source text: as §3, §1, §2

[11] = tested on: heart; test: Capture by the heart, in rats, of lyso-PCDHA and non-esterified DHA; format: in vivo; conditions: 20-day-old rat, intravenous; lyso-PCDHA vs non-esterified DHA
Source text: as §3, §1, §2

[12] = incorporation in vitro into the platelet lipid reserves, by means of albumin

CC/C=C\C/C=C\C/C=C\C/C=C\C/C=C\CCCC(=O)O [20:5n-3, eicosapentanoic acid]
aggregability of the platelets in response to U 46.619 [1, 12]: loss of aggregability of the platelets in response to U 46.619 | inhibition of platelet aggregation induced by U 46.619 ([1]; non-esterified fatty acid): competitively inhibit platelet aggregation induced by U 46.619 | affinity of U 46.619 for its receptor [2, 12]: decrease in the affinity of the agonist for its receptor | inhibition of specific binding of U 46.619 to washed platelets ([2]; non-esterified fatty acid): competitively inhibit | effect on platelet aggregation induced by thrombin [3]: none of these fatty acids affects the platelet aggregation | effect on platelet aggregation induced by ionophore A 23187 [4]: none of these fatty acids affects the platelet aggregation | effect on binding of yohimbine to alpha2-adrenergic receptor [5]: do not modify binding of yohimbine | alteration of the TXA2 /PGH2 receptor [6]: specifically alter the TXA2 /PGH2 receptor

CC/C=C\C/C=C\C/C=C\C/C=C\C/C=C\C/C=C\CCC(=O)OC(CO)COP(=O)([O-])OCC[N+](C)(C)C (stereo not shown) [lyso-PCDHA, 1-lyso-2-DHA-glycerophosphocholine]
esterification in the phosphatidylethanolamines ([7]; brain, rat, after injection): very rapidly, a differential esterification is produced in the phosphatidylethanolamines | reacylation of DHA in the phosphatidylcholines ([7]; brain, rat, first stages after the injection): low and is visible only in the first stages after the injection | radioactivity in OTHERS of the brain [7]: 3.7 % of the radioactivity of the total lipids | radioactivity in AG of the brain ([7]; 2.5 min): 15.3 % of the radioactivity of the total lipids | radioactivity in DG of the brain ([7]; 2.5 min): 10.8 % of the radioactivity of the total lipids | radioactivity in LN of the brain ([7]; 2.5 min): 29.3 % of the radioactivity of the total lipids | radioactivity in Lyso-PC of the brain ([7]; 2.5 min): 4.1 % of the radioactivity of the total lipids | radioactivity in MG of the brain ([7]; 2.5 min): 2.2 % of the radioactivity of the total lipids | radioactivity in PC of the brain ([7]; 2.5 min): 25.6 % of the radioactivity of the total lipids | radioactivity in PE of the brain ([7]; 2.5 min): 28.2 % of the radioactivity of the total lipids | radioactivity in PS of the brain ([7]; 2.5 min): 3.9 % of the radioactivity of the total lipids | radioactivity in Pi of the brain ([7]; 2.5 min): 8.9 % of the radioactivity of the total lipids | radioactivity in TG of the brain ([7]; 2.5 min): 1.0 % of the radioactivity of the total lipids | radioactivity in AG of the brain ([7]; 5 min): 21.2 % of the radioactivity of the total lipids | radioactivity in DG of the brain ([7]; 5 min): 9.3 % of the radioactivity of the total lipids | radioactivity in LN of the brain ([7]; 5 min): 35.3 % of the radioactivity of the total lipids | radioactivity in Lyso-PC of the brain ([7]; 5 min): 0.4 % of the radioactivity of the total lipids | radioactivity in MG of the brain ([7]; 5 min): 2.3 % of the radioactivity of the total lipids | radioactivity in OTHERS of the brain ([7]; 5 min): 11.4 % of the radioactivity of the total lipids | radioactivity in PC of the brain ([7]; 5 min): 17.8 % of the radioactivity of the total lipids | radioactivity in PE of the brain ([7]; 5 min): 26.3 % of the radioactivity of the total lipids | radioactivity in PS of the brain ([7]; 5 min): 5.3 % of the radioactivity of the total lipids | radioactivity in Pi of the brain ([7]; 5 min): 3.4 % of the radioactivity of the total lipids | radioactivity in TG of the brain ([7]; 5 min): 2.5 % of the radioactivity of the total lipids | radioactivity in AG of the brain ([7]; 6.5 min): 17.2 % of the radioactivity of the total lipids | radioactivity in DG of the brain ([7]; 6.5 min): 9.4 % of the radioactivity of the total lipids | radioactivity in LN of the brain ([7]; 6.5 min): 31.6 % of the radioactivity of the total lipids | radioactivity in Lyso-PC of the brain ([7]; 6.5 min): 1.2 % of the radioactivity of the total lipids | radioactivity in MG of the brain ([7]; 6.5 min): 2.7 % of the radioactivity of the total lipids | radioactivity in PC of the brain ([7]; 6.5 min): 26.2 % of the radioactivity of the total lipids | radioactivity in PE of the brain ([7]; 6.5 min): 28.1 % of the radioactivity of the total lipids | radioactivity in PS of the brain ([7]; 6.5 min): 5.3 % of the radioactivity of the total lipids | radioactivity in Pi of the brain ([7]; 6.5 min): 3.7 % of the radioactivity of the total lipids | radioactivity in TG of the brain ([7]; 6.5 min): 2.3 % of the radioactivity of the total lipids | radioactivity in AG of the brain ([7]; 15 min): 13.9 % of the radioactivity of the total lipids | radioactivity in DG of the brain ([7]; 15 min): 5.8 % of the radioactivity of the total lipids | radioactivity in LN of the brain ([7]; 15 min): 23.7 % of the radioactivity of the total lipids | radioactivity in Lyso-PC of the brain ([7]; 15 min): 0.2 % of the radioactivity of the total lipids | radioactivity in MG of the brain ([7]; 15 min): 1.8 % of the radioactivity of the total lipids | radioactivity in OTHERS of the brain ([7]; 15 min): 2.6 % of the radioactivity of the total lipids | radioactivity in PC of the brain ([7]; 15 min): 26.8 % of the radioactivity of the total lipids | radioactivity in PE of the brain ([7]; 15 min): 38.9 % of the radioactivity of the total lipids | radioactivity in PS of the brain ([7]; 15 min): 4.6 % of the radioactivity of the total lipids | radioactivity in Pi of the brain ([7]; 15 min): 3.2 % of the radioactivity of the total lipids | radioactivity in TG of the brain ([7]; 15 min): 2.3 % of the radioactivity of the total lipids | radioactivity in AG of the brain ([7]; 30 min): 11 % of the radioactivity of the total lipids | radioactivity in DG of the brain ([7]; 30 min): 4 % of the radioactivity of the total lipids | radioactivity in LN of the brain ([7]; 30 min): 17.8 % of the radioactivity of the total lipids | radioactivity in Lyso-PC of the brain ([7]; 30 min): 0 % of the radioactivity of the total lipids | radioactivity in MG of the brain ([7]; 30 min): 0.7 % of the radioactivity of the total lipids | radioactivity in OTHERS of the brain ([7]; 30 min): 3.8 % of the radioactivity of the total lipids | radioactivity in PC of the brain ([7]; 30 min): 24.1 % of the radioactivity of the total lipids | radioactivity in PE of the brain ([7]; 30 min): 46.4 % of the radioactivity of the total lipids | radioactivity in PS of the brain ([7]; 30 min): 5.0 % of the radioactivity of the total lipids | radioactivity in Pi of the brain ([7]; 30 min): 2.6 % of the radioactivity of the total lipids | radioactivity in TG of the brain ([7]; 30 min): 2.1 % of the radioactivity of the total lipids | radioactivity in AG of the brain ([7]; 60 min): 10.0 % of the radioactivity of the total lipids | radioactivity in DG of the brain ([7]; 60 min): 2.6 % of the radioactivity of the total lipids | radioactivity in LN of the brain ([7]; 60 min): 16.7 % of the radioactivity of the total lipids | radioactivity in Lyso-PC of the brain ([7]; 60 min): 0 % of the radioactivity of the total lipids | radioactivity in MG of the brain ([7]; 60 min): 0.4 % of the radioactivity of the total lipids | radioactivity in OTHERS of the brain ([7]; 60 min): 5.3 % of the radioactivity of the total lipids | radioactivity in PC of the brain ([7]; 60 min): 24.9 % of the radioactivity of the total lipids | radioactivity in PE of the brain ([7]; 60 min): 49.2 % of the radioactivity of the total lipids | radioactivity in PS of the brain ([7]; 60 min): 3.9 % of the radioactivity of the total lipids | radioactivity in Pi of the brain ([7]; 60 min): 2.6 % of the radioactivity of the total lipids | radioactivity in TG of the brain ([7]; 60 min): 1.4 % of the radioactivity of the total lipids | capture by the brain [8]: particularly well captured by the brain | capture by the kidney [9]: captures the two forms of supply in essentially the same manner | capture by the liver [10]: do not capture the lyso-PCDHA's as effectively as the non-esterified DHA | capture by the heart [11]: do not capture the lyso-PCDHA's as effectively as the non-esterified DHA
